{"source": "patent US20260053778A1", "about": "“USE OF NOVEL PPAR ACTIVITY MODULATOR FOR PREVENTION, AMELIORATION OR TREATMENT OF DEGENERATIVE BRAIN DISEASES” (POSTECH RESEARCH AND BUSINESS DEVELOPMENT FOUNDATION, priority 2022, published 2026)", "key": {"5×FAD mice [1]": {"tested_on": "5×FAD mice", "assay": "Western blot of NLRP3, NF-κB and ASC in hippocampal tissue", "assay_type": "in vivo, mouse", "details": "hippocampal brain lysate", "experimental": "The protein levels of NLRP3, NF-κB, and ASC in the hippocampal tissues isolated from 5×FAD mice and DTMB-treated 5×FAD mice were confirmed by Western blot. Western blot analysis was performed in the same manner as in Example 2-4 using primary antibodies against NLRP3, NF-κB, and ASC (Cell Signaling Technology, Danvers, MA, USA)."}, "5×FAD mice [2]": {"tested_on": "5×FAD mice", "assay": "Western blot and qPCR of APP and β-/γ-secretase in brain tissue", "assay_type": "in vivo, mouse", "details": "DTMB 10 mg/kg orally", "experimental": "Aβ peptides are generated from amyloid precursor protein (APP) by the action of β- and γ-secretase. It is possible that DTMB acts on APP processing to inhibit the formation of Aβ aggregates. To investigate this possibility, the protein levels of total APP and components of β- and γ-secretase were measured in the hippocampus and cortex using western blot and qPCR.\nTo investigate the soluble and insoluble Aβ components, two extraction steps were performed. Left hemisphere samples were homogenized at a concentration of 100 mg/mL in cold Tris-buffered saline (TBS consisting of 50 mM Tris-pH 7.5 and 150 mM NaCl) with a protease inhibitor cocktail (Thermo Fisher Scientific, Waltham, MO, USA). After centrifugation at 15,000 rpm for 1 hour at 4° C., the supernatant of the sample was used for western blotting. Insoluble proteins were extracted from the pellet by dissolving in 5 M guanidine buffer (5 M guanidine HCl and 150 mM NaCl-pH 7.5). Soluble and insoluble protein samples were stored at −80° C.\nWestern blot analysis was performed in the same manner as in Example 2-4 using primary antibodies against nicastrin, pen2 (Cell Signaling Technology, Danvers, MA, USA), Aph1 (Invitrogen), amyloid C-terminal fragment (Santa Cruz Biotechnology, Dallas, TX, USA), and GAPDH (Bethyl Laboratories, Mongomery, TX, USA). Secondary antibodies from rabbit (Promega), rat, and goat (Bethyl Laboratories) were used, and detection was performed using SUPEX ECL reagent (Neuronex, Korea) and ImageQuant LAS-4000 (GE Healthcare, MA, USA) according to the manufacturer's instructions. Integrated blot densities were quantified using ImageJ."}, "BV2 microglial cell line": {"tested_on": "BV2 microglial cell line", "assay": "Cytokine ELISA in BV2 microglia", "assay_type": "cell-based, mouse", "details": "BV2 treated with LPS or Aβ aggregates, DTMB 24 h", "experimental": "To confirm a more clear anti-inflammatory effect, the microglia cell line (BV2) and microglia isolated from mice were treated with lipopolysaccharide (LPS) and Aβ aggregates to induce an inflammatory response, and then DTMB was treated to measure the decrease in cytokine levels in microglia by DTMB treatment using ELISA.\nThe BV2 mouse microglia cell line was provided by Professor Seok Kyung-ho of Kyungpook National University. BV2 cells were cultured in a 5% CO2 incubator with a humidified atmosphere at 37° C. with Dulbecco's Modified Eagle Medium (DMEM) (Hyclone, Logan, UT, USA) containing 5% fetal bovine serum (FBS, Hyclone) and 50 μg/mL gentamicin (Lonza, Switzerland).\nCytokine levels (TNF-α, IL-1β, and IL-6) were measured in the media of BV2 microglia and primary microglia treated with LPS (1 μg/mL) and human Aβ1-42 (5 μg/mL). Human Aβ1-42 (AnaSpec, Fremont, CA, USA) was pre-aggregated in the culture medium for 24 h before cell treatment. BV2 cells and primary microglia were seeded in 12-well plates (SPL) at a density of 1× 10^5 cells/well in 1 mL of complete medium. After 12 h, cells were treated with LPS or human Aβ1-42 and further cultured with DTMB for 24 h. […]"}, "[3]": {"tested_on": "5×FAD Alzheimer's dementia-induced mice", "assay": "Immunohistochemistry of Aβ aggregates in brain tissue", "assay_type": "in vivo, mouse", "details": "hippocampus and cerebral cortex regions, 6e10 immunohistochemistry, 5×FAD mice, DTMB 10 mg/kg orally", "experimental": "In the case of Alzheimer's dementia, an increase in the formation of Aβ aggregates in brain tissue is observed as a common pathological phenomenon. Therefore, to determine whether DTMB administration inhibited the formation of Aβ aggregates, the amount of AB aggregates in the hippocampus and cerebral cortex, which are closely related to memory ability, was measured using immunochemical staining in 5×FAD Alzheimer's dementia-induced mice.\nThe mice were perfused with ice-cold phosphate-buffered saline (PBS). The brain tissue was used separately for molecular analysis or immunohistochemistry. The right hemisphere was fixed with 4% PFA and transferred to a sucrose solution (30%) for 24 hours. The right hemisphere was frozen in the optimal cutting temperature compound of dry ice. Coronal sections (18 μm thick) including the hippocampus were cut and prepared on slide glass. The tissue sections were then permeabilized and blocked with blocking solution (5% goat serum and 0.2% Triton X-100 in PBS) for 1 h at room temperature. Primary antibody incubation was performed overnight at 4° C. using anti-6e10 antibody (Biolegend, Japan, 1:100). After washing, the sections were incubated with the appropriate secondary antibody (1:500) for 1 h at room temperature. […] Fluorescence was measured by calculating the % area and analyzed using ImageJ. […]"}, "[4]": {"molecular_target": "T1, HIS-tagged recombinant PPAR γ protein (Homo sapiens, UniProt P37231)", "T1 sequence (P37231 238-503 limits assumed)": "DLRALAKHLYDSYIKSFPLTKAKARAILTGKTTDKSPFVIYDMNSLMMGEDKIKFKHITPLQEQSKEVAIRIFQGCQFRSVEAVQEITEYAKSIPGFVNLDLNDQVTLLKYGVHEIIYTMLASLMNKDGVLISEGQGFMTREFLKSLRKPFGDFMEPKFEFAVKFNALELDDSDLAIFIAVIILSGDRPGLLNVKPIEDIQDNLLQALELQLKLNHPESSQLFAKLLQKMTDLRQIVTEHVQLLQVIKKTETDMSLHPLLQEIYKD", "assay": "CNBr-drug and protein binding experiment, PPARγ", "details": "Western blotting after 24 h incubation", "experimental": "Since the computer prediction program predicted that DTMB binds to PPAR transcription factors, CNBr-drug and protein binding experiments were conducted to confirm whether DTMB actually binds to PPAR. To determine the actual degree of drug-protein binding, the reaction of the protein of the PPAR-α, β/δ, γ ligand-binding portion with the DTMB drug-bound CNBr beads was confirmed through Western blotting.\nSpecifically, CNBr Sepharose 4B beads were prepared and activated according to the instructions. 100 mg of CNBr-activated Sepharose 4B beads were incubated with drugs or DMSO at 4° C. for 18 h. The drug-bound beads reacted with HIS-tagged recombinant PPAR α, β/δ, and γ proteins. After 24 h of incubation, Western blotting experiments were performed to confirm whether the recombinant proteins bound to the drug-bound beads."}}, "data": [{"smiles": "COc1ccc(-c2cc(=O)oc3c(C)c(OC(=O)[C@H](Cc4c[nH]c5ccccc45)NC(=O)OC(C)(C)C)ccc23)cc1", "note": "[DTMB, [4-(4-Methoxyphenyl)-8-methyl-2-oxochromen-7-yl](2S)-3-(1H-indol-3-yl)-2-[(2-methylpropan-2-yl)oxycarbonylamino]propanoate]", "values": [{"measurement": "ASC level", "setting": "5×FAD mice [1]", "value": "did not change significantly"}, {"measurement": "Protein level of NF-κB", "setting": "5×FAD mice [1]", "value": "decreased"}, {"measurement": "Protein level of NLRP3", "setting": "5×FAD mice [1]", "value": "decreased"}, {"measurement": "Protein level of β-secretase", "setting": "5×FAD mice [2]; cortex", "value": "slightly decreased"}, {"measurement": "APP protein and mRNA levels", "setting": "5×FAD mice [2]; hippocampus", "value": "no changes"}, {"measurement": "Protein levels of β- and γ-secretase", "setting": "5×FAD mice [2]; hippocampus", "value": "no changes"}, {"measurement": "Level of IL-6", "setting": "BV2 microglial cell line", "value": "statistically significantly reduced"}, {"measurement": "Level of TNF-α", "setting": "BV2 microglial cell line", "value": "statistically significantly reduced"}, {"measurement": "Amount of Aβ aggregates", "setting": "[3]", "value": "significantly reduced"}, {"measurement": "Binding of PPARγ ligand-binding protein to drug-bound CNBr beads", "setting": "[4]", "value": "binds to all subtypes of PPAR"}]}]}
